These results are taken from US9353075B2, “Disubstituted beta-lactones as inhibitors of N-acylethanolamine acid amidase (NAAA)” (The Regents of the University of California, priority 2011, dated 2016).

The target in this assay is Acid Ceramidase (AC) (Rattus norvegicus (Rat), UniProt Q6P7S1). The assay is described as follows: Acid ceramidase inhibition, recombinant rat AC, LC-MS. It is filed as biochemical. The conditions noted are these: read-out: r-AC % inhib. @ 10 μM. The protocol: The PCR (High Fidelity PCR Master, Roche) product was subcloned into a pEF6-[…] vector (Invitrogen) to construct a mammalian expression vector encoding […]-tagged rat AC. HEK293 cells were transfected with pEF6-rAC-[…] using Super-Fect reagent (Qiagen) and screened with G418 (0.3 mg/mL). Cells were suspended in 20 mM Tris HCl (pH 7.5) containing 0.32M sucrose, sonicated and centrifuged at 800×g for 15 minutes at 4° C. The supernatants were centrifuged again at 12,000×g for 30 minutes at 4° C. The pellets were suspended in phosphate-buffered saline (PBS) and subjected to 2 freeze-thaw cycles at -80° C. The suspensions were centrifuged at 105,000×g for 1 hour at 4° C. The supernatants containing recombinant AC were kept at -80° C. until use. Protein concentration was measured using the bicinchoninic acid (BCA) assay (Pierce). […] Reactions were stopped by addition of a mixture of chloroform/methanol (2:1, vol/vol) containing 1 nmol of heptadecanoic acid (HDA; NuChek Prep). […] HDA was eluted on an XDB Eclipse C18 column isocratically at 2.2 mL/min for 1 minute with a solvent mixture of 95% methanol and 5% water, both containing 0.25% acetic acid and 5 mM ammonium acetate. The column temperature was 50° C. Electrospray ionization (ESI) was in the negative mode, capillary voltage as 4 kV, and fragmentor voltage was 100 V. N2 was used as drying gas at a flow rate of 13 L/min and a temperature of 350° C. Nebulizer pressure was set at 60 psi. We monitored [M-H]- in the selected-ion monitoring (SIM) mode using HDA as internal standard. Calibration curves were generated using commercial lauric acid (Nu-Chek Prep; m/z=199).
Sequence of Acid Ceramidase (AC) (Q6P7S1 21-394): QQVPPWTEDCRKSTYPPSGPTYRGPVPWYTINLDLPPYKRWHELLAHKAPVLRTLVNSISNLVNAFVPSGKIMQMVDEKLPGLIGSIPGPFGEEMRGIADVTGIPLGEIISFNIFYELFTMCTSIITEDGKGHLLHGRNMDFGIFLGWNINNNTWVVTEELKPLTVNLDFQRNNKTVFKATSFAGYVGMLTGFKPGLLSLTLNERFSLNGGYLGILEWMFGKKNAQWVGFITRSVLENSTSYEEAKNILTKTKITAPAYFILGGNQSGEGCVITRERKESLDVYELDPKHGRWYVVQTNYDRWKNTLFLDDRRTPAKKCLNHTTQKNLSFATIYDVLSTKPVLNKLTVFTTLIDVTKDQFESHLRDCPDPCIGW

In the case of `C[C@@H]1OC(=O)[C@@H]1NC(=O)OCCCCCc1ccccc1` [Example 6, 5-phenylpentyl-[(2S,3R)-2-methyl-4-oxooxetan-3-yl]-carbamate], the inhibition at 10 µM was less than 10%.
